Source: patent US8686043B2, “Heterocyclic sulfonamides, uses and pharmaceutical compositions thereof” (Pfizer Inc., priority 2009, dated 2014)

These compounds were tested on AMPA receptors (assay: AMPA ES Cell FLIPR Screen (AMPA Potentiator Assay)). Details: ES cell-derived neurons, FLIPR (Fluo-4), 32 μM AMPA challenge; values marked * are the geometric mean of 2-5 EC50 determinations.
Type: cell-based, murine
Source text: Growth and Maintenance of ES Cells
Murine ES cell line E14, with a targeted mutation in the Sox1 gene and a neuroectodermal marker that offers G418 resistance when the Sox1 gene is expressed (Stem Cell Sciences, West Mains Road, Edinburgh, Scotland EH9 3JQ) may be used in all experiments. ES cells may be maintained undifferentiated as previously described (Methods For The Isolation And Maintenance Of Murine Embryonic Stem Cells; Roach-M-L, McNeish-J-D., Methods in Molecular Biology, 185, 1-16 (2002)). Briefly, ES cells may be grown in stem cell culture media comprising a base medium of Knockout™ D-MEM (Invitrogen 5791 Van Allen Way, Carlsbad, Calif. USA 92008), supplemented with 15% ES qualified Fetal Bovine Serum (FBS) (Invitrogen), 0.2 mM L-Glutamine (Invitrogen), 0.1 mM MEM non-essential amino acids (Invitrogen), 30 μg/ml Gentamicin […] (Invitrogen), 1000 U/ml ESGRO™ (CHEMICON International, Inc., 28820 Single Oak Drive, Temecula, Calif. 92590) and 0.1 mM 2-mercaptoethanol (Sigma, 3050 Spruce St., St. Louis, Mo. 63103). ES cells may then be plated on gelatin-coated dishes (BD Biosciences, 2350 Qume Drive, San Jose, Calif. 95131), wherein the media is changed daily and the cells dissociated with 0.05% Trypsin EDTA (Invitrogen) every other day.
Neural In Vitro Differentiation of ES Cells
Embryoid Body Formation: Prior to embryoid body (EB) formation the ES cells may be weaned from FBS onto Knockout Serum Replacement™ (KSR) (Invitrogen). To form EBs, ES cells may be dissociated into a single cell suspension, then 3×10^6 cells plated in bacteriology dishes (Nunc 4014) and grown as a suspension culture in NeuroEB-I medium that consisted of Knockout™ D-MEM (Invitrogen), supplemented with 10% KSR (Invitrogen), 0.2 mM L-Glutamine (Invitrogen), 0.1 mM MEM non-essential amino acids (Invitrogen), 30 μg/ml Gentamicin (Invitrogen), 1000 U/ml ESGRO™ (CHEMICON International, Inc.), 0.1 mM 2-mercaptoethanol (Sigma) and 150 ng/ml Transferrin (Invitrogen). The plates may then be put on a Stovall Belly Button™ shaker in an atmospheric oxygen incubator. The media may be changed on day 2 of EB formation with NeuroEB-I and on day 4 with NeuroEB-II (NeuroEB-I plus 1 μg/ml mNoggin (R&D Systems, 614 McKinley Place N.E. Minneapolis, Minn. 55413)
Neuronal Precursor Selection and Expansion: On day 5 of EB formation, EBs may be dissociated with 0.05% Trypsin EDTA, and 4×10^6 cells/100 mm dish may then be plated on Laminin coated tissue culture dishes in NeuroEB-II-G418 medium that consisted of a base medium of a 1:1 mixture of D-MEM/F12 supplemented with N2 supplements and NeuroBasal Medium supplemented with B27(I ASSUME THIS IS THE VITAMIN) supplement and 0.1 mM L-Glutamine (all from Invitrogen). The base medium may then be supplemented with 10 ng/ml bFGF (Invitrogen), 1 μg/ml mNoggin, 500 ng/ml SHH-N (IS THIS SONIC HEDGEHOG FROM ProSpecBio Rehovot Science Park, P.O. BOX 398, Rehovot 76103, Israel), 100 ng/ml FGF-8b (R&D Systems), 1 μg/ml Laminin and 200 μg/ml G418 (Invitrogen) for selection of neuronal precursors expressing Sox-1. The plates may then be put in an incubator containing 2% oxygen and maintained in these conditions. During the 6-day selection period, the NeuroEB-II ([…]) media should be changed daily. On day 6, the surviving neuronal precursor foci may then be dissociated with 0.05% Trypsin EDTA and the cells plated at a density of 1.5×10^6 cells/100 mm Laminin coated dish in Neuroll ([…])-G418 medium. The cells may then be dissociated every other day for expansion, and prepared for cryopreservation at passage 3 or 4. The cryopreservation medium typically contains 50% KSR, 10% dimethyl sulfoxide (DMSO) (Sigma) and 40% Neurol([…])-G418 medium. Neuronal precursors may be cryopreserved at a concentration of 4×10^6 cells/ml and 1 ml/cryovial in a controlled rate freezer overnight then transferred to an ultra-low freezer or liquid nitrogen for long-term storage. […]

SMILES	EC50 [nM]
CC(C)S(=O)(=O)N[C@H]1CCC[C@H]1Oc1ccc(-c2ccccc2C#N)cc1 [Example 5, N-{(1S,2R)-2-[(2′-cyanobiphenyl-4-yl)oxy]cyclopentyl}propane-2-sulfonamide]	535
CC(C)S(=O)(=O)N[C@H]1CCCC[C@H]1Oc1ccc(-c2ccccc2C#N)cc1 [Example 7, N-{(1S,2R)-2-[(2′-cyanobiphenyl-4-yl)oxy]cyclohexyl}propane-2-sulfonamide]	157
CCOc1cc(F)ccc1-c1ccc(O[C@@H]2COC[C@@H]2NS(=O)(=O)C(C)C)cc1 [Example 19, N-{(3S,4S)-4-[(2′-ethoxy-4′-fluorobiphenyl-4-yl)oxy]tetra hydrofuran-3-yl}propane-2-sulfonamide]	248
Cc1cc(F)ccc1-c1ccc(O[C@@H]2COC[C@@H]2NS(=O)(=O)C(C)C)cc1 [Example 20, N-{(3S,4S)-4-[(4′-fluoro-2′-methylbiphenyl-4-yl)oxy]tetra hydrofuran-3-yl}propane-2-sulfonamide]	729
CC(C)S(=O)(=O)N[C@H]1COC[C@H]1Oc1ccc(-c2cncnc2)cc1 [Example 22, N-[(3S,4S)-4-(4-pyrimidin-5-ylphenoxy)tetrahydrofuran-3-yl]propane-2-sulfonamide]	861
CC(C)S(=O)(=O)N[C@H]1CCC[C@H]1Oc1ccc(N2CCCC2)cc1 [Example 27, N-[(1S,2R)-2-(4-pyrrolidin-1-ylphenoxy)cyclopentyl] propane-2-sulfonamide]	857
CCOc1ccccc1-c1ccc(O[C@@H]2CCC[C@@H]2NS(=O)(=O)C(C)C)cc1F [Example 31, N-{(1S,2R)-2-[(2′-ethoxy-2-fluorobiphenyl-4-yl)oxy]cyclopentyl} propane-2-sulfonamide]	327
CC(C)S(=O)(=O)N[C@H]1CCC[C@H]1Oc1ccc(-c2ccc(C#N)s2)c(F)c1 [Example 32, N-{(1S,2R)-2-[4-(5-cyano-2-thienyl)-3-fluorophenoxy]cyclopentyl} propane-2-sulfonamide]	1400
CC(C)S(=O)(=O)N[C@H]1CCC[C@H]1Oc1ccc(-c2cccc(C(=O)NC3CC3)c2)c(F)c1 [Example 33, N-cyclopropyl-2′-fluoro-4′-({(1R,2S)-2-[(isopropylsulfonyl)amino]cyclopentyl}oxy) biphenyl-3-carboxamide]	623
CC(C)S(=O)(=O)N[C@H]1CCC[C@H]1Oc1ccc(-c2ccc(CCNS(C)(=O)=O)cc2)c(F)c1 [Example 34, N-{(1S,2R)-2-[(2-fluoro-4′-{2-[(methylsulfonyl)amino]ethyl}biphenyl-4-yl)oxy]cyclopentyl} propane-2-sulfonamide]	3220
CC(C)S(=O)(=O)N[C@H]1CCCC[C@H]1Oc1ccc(-c2ccc(C#N)s2)c(F)c1 [Example 37, N-{(1S,2R)-2-[4-(5-cyano-2-thienyl)-3-fluorophenoxy]cyclohexyl} propane-2-sulfonamide]	1720
CC(C)S(=O)(=O)N[C@H]1CCCC[C@H]1Oc1ccc(N2CCCC2)cc1 [Example 38, N-[(1S,2R)-2-(4-pyrrolidin-1-ylphenoxy)cyclohexyl] propane-2-sulfonamide]	327
CCOc1ccccc1-c1ccc(O[C@@H]2CCCC[C@@H]2NS(=O)(=O)C(C)C)cc1 [Example 39, N-{(1S,2R)-2-[(2′-ethoxybiphenyl-4-yl)oxy]cyclohexyl} propane-2-sulfonamide]	1420
CC(C)S(=O)(=O)N[C@H]1CCCC[C@H]1Oc1ccc(-c2ccccc2OCC(F)(F)F)nc1 [Example 40, N-[(1S,2R)-2-({6-[2-(2,2,2-trifluoroethoxy)phenyl]pyridin-3-yl}oxy)cyclohexyl] propane-2-sulfonamide]	148
CC(C)S(=O)(=O)N[C@H]1CCCC[C@H]1Oc1ccc(N2CCCCC2)cc1 [Example 54, N-[(1S,2R)-2-(4-piperidin-1-ylphenoxy)cyclohexyl]pro-pane-2-sulfonamide]	503

More lines, in order of falling EC50, values ahead:

EC50 [nM]	SMILES
2960	CCOc1ccccc1-c1ccc(O[C@@H]2CCC[C@@H]2NS(=O)(=O)C(C)C)cc1 [Example 25, N-{(1S,2R)-2-[(2′-ethoxybiphenyl-4-yl)oxy]cyclopentyl} propane-2-sulfonamide]
2780	CC(C)S(=O)(=O)N[C@H]1CCCC[C@H]1Oc1ccc(-c2ccc(C#N)s2)nc1 [Example 42, N-[(1S,2R)-2-{[6-(5-cyano-2-thienylpyridin)-3-yl]oxy}cyclohexyl] propane-2-sulfonamide]
1610	CC(C)S(=O)(=O)N[C@H]1CCCC[C@H]1Oc1ccc(-c2ccc(F)cc2C#N)c(F)c1 [Example 36, N-{(1S,2R)-2-[(2′-cyano-2,4′-difluorobiphenyl-4-yl)oxy]cyclohexyl} propane-2-sulfonamide]
1540	CC(C)S(=O)(=O)N[C@H]1CCC[C@H]1Oc1ccc(-c2ccc(C#N)s2)cc1 [Example 6, N-{(1S,2R)-2-[4-(5-cyano-2-thienyl)phenoxy]cyclopentyl}propane-2-sulfonamide]
1180	CC(C)S(=O)(=O)N[C@H]1COC[C@H]1Oc1ccc(-c2ccc(O)cc2)cc1 [Example 18, N-{(3S,4S)-4-[(4′-hydroxybiphenyl-4-yl)oxy]tetra hydrofuran-3-yl}propane-2-sulfonamide]
1120	CC(C)S(=O)(=O)N[C@H]1CCC[C@H]1Oc1ccc(-c2ccccc2)cc1 [Example 26, N-[(1S,2R)-2-(biphenyl-4-yloxy)cyclopentyl] propane-2-sulfonamide]
651	CC(C)S(=O)(=O)N[C@H]1CCC[C@H]1Oc1ccc(-c2ccc(C(=O)O)cc2C#N)cc1 [Example 28, 2-cyano-4′-({(1R,2S)-2-[(isopropylsulfonyl)amino]cyclopentyl}oxy) biphenyl-4-carboxylic acid]
525	CC(C)S(=O)(=O)N[C@H]1CCCC[C@H]1Oc1ccc(-c2ccccc2C#N)c(F)c1 [Example 35, N-{(1S,2R)-2-[(2′-cyano-2-fluorobiphenyl-4-yl)oxy]cyclohexyl} propane-2-sulfonamide]
521	CC(C)S(=O)(=O)N[C@H]1CCC[C@H]1Oc1ccc(-c2ccccc2)c(F)c1 [Example 29, N-{(1S,2R)-2-[(2-fluorobiphenyl-4-yl)oxy]cyclopentyl} propane-2-sulfonamide]
349	CC(C)S(=O)(=O)N[C@H]1CCC[C@H]1Oc1ccc(-c2ccc(F)cc2C#N)c(F)c1 [Example 30, N-{(1S,2R)-2-[(2′-cyano-2,4′-difluorobiphenyl-4-yl)oxy]cyclopentyl}propane-2-sulfonamide]
331	CC(C)S(=O)(=O)N[C@H]1CCCC[C@H]1Oc1ccc(-c2ccccc2OC(F)(F)F)nc1 [Example 41, N-[(1S,2R)-2-({6-[2-(trifluoromethoxy)phenyl]pyridin-3-yl}oxy)cyclohexyl] propane-2-sulfonamide]
239	CC(C)S(=O)(=O)N[C@H]1COC[C@H]1Oc1ccc(-c2ccc(F)cc2F)cc1 [Example 21, N-{(3S,4S)-4-[(2′,4′-difluorobiphenyl-4-yl)oxy]tetra hydrofuran-3-yl}propane-2-sulfonamide]

Same assay, conditions: title compound versus its enantiomer

SMILES	biological activity improved over that of its enantiomer [times]
CC(C)S(=O)(=O)N[C@H]1CCCC[C@H]1Oc1ccc(-c2ccccc2C#N)cc1 [Example 7, N-{(1S,2R)-2-[(2′-cyanobiphenyl-4-yl)oxy]cyclohexyl}propane-2-sulfonamide]	> 150

Same assay, conditions: title compound versus its enantiomer prepared from the (1R,2S) bromide

SMILES	potency compared with its enantiomer
CC(C)S(=O)(=O)N[C@H]1CCC[C@H]1Oc1ccc(-c2ccccc2C#N)cc1 [Example 5, N-{(1S,2R)-2-[(2′-cyanobiphenyl-4-yl)oxy]cyclopentyl}propane-2-sulfonamide]	significantly more potent than its enantiomer
